Source: patent US9102599B2, “N-((3-benzyl)-2,2-(bis-phenyl)-propan-1-amine derivatives as CETP inhibitors for the treatment of atherosclerosis and cardiovascular diseases” (Bristol-Myers Squibb Company, priority 2006, dated 2015)
pIC50: −log10 of the molar value.

target: purified human recombinant CETP (Homo sapiens (Human), UniProt P11597); assay: CETP Scintillation Proximity Assay; type: biochemical; details: CETP-dependent cholesterol ester transfer from 3H-CE/HDL to biotinylated LDL, 37° C.; read-out: CETP SPA IC50
Sequence (P11597 18-493): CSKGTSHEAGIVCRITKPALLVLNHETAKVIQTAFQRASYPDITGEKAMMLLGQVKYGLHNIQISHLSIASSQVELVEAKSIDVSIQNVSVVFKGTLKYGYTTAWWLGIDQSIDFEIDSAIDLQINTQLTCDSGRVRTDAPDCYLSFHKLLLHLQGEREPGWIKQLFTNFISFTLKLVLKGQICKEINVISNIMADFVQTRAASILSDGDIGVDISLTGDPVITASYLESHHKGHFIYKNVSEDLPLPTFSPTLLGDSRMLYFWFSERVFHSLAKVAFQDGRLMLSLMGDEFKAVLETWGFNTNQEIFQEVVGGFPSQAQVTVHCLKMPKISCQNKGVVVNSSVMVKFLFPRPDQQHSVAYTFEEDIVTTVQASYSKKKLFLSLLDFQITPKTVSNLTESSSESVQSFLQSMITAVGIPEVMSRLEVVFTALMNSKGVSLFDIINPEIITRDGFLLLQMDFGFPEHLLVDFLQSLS
Protocol: CETP Scintillation Proximity Assay
Dilutions of compounds in DMSO (1 μl) are added to BD plates (#353232). To this is added 20 μl of a mixture containing ^3H-CE/HDL (0.15 μl), biotinylated LDL (˜5 μg protein/ml final concentration) and unlabeled HDL (16 μg/ml final concentration) in a buffer containing 50 mM HEPES, pH 7.4, 150 mM NaCl and 0.05% sodium azide. Reactions are initiated by the addition of 10 μl of buffer containing purified human recombinant CETP, and incubated at 37° C. At the end of the reaction, 60 μl of LEADseeker beads (#RPNQ0261, 2 mg/ml in buffer containing 1 mg/ml BSA and 0.05 mg protein/ml HDL) are added, the plates are covered and subsequently read. Background activity is determined in a set of wells that receive buffer but no CETP. The level of inhibition is determined by comparing the readings in wells that contain compound to the readings in control wells containing DMSO.

pIC50	Compound
8.05	O[C@H](CNC[C@@](Cc1ccccc1)(c1cc(F)cc(OC(F)(F)C(F)F)c1)c1ccc(Cl)cn1)C(F)(F)F (stereo in doubt) [Example 2, (R)-3-OR)-2-(5-chloropyridin-2-yl)-2-(3-fluoro-5-(1,1,2,2-tetrafluoroethoxy)phenyl)-3-phenylpropylamino)-1,1,1-trifluoropropan-2-ol]
5.36	O=C(NC[C@@](Cc1ccccc1)(c1cc(F)cc(C(F)(F)F)c1)c1ccc(F)cn1)[C@@](O)(c1ccccc1)C(F)(F)F [Example 5, (S)-3,3,3-trifluoro-N—((R)-2-(3-fluoro-5-(trifluoromethyl)phenyl)-2-(5-fluoropyridin-2-yl)-3-phenylpropyl)-2-hydroxy-2-phenylpropanamide]
7.52	O[C@H](CNC[C@@](Cc1ccccc1)(c1cc(F)cc(C(F)(F)F)c1)c1ccc(F)cn1)C(F)(F)F [Example 6, (R)-1,1,1-trifluoro-3-((R)-2-(3-fluoro-5-(trifluoromethyl)phenyl)-2-(5-fluoropyridin-2-yl)-3-phenylpropylamino)propan-2-ol]
5.84	O=C(NCC(Cc1ccccc1)(c1cccc(OC(F)(F)F)c1)c1cccc(OC(F)(F)F)c1)C1CC1(F)F (stereo not drawn) [Example 11, 2,2-difluoro-N-(3-phenyl-2,2-bis(3-(trifluoromethoxy)phenyl)propyl)cyclopropanecarboxamide]
6.88	O=C(NCC(F)(F)F)NCC(Cc1ccccc1)(c1cccc(OC(F)(F)F)c1)c1cccc(OC(F)(F)F)c1 [Example 27, 1-(3-phenyl-2,2-bis(3-(trifluoromethoxy)phenyl)propyl)-3-(2,2,2-trifluoroethyl)urea]
6.87	Cc1cc(CC(CNC[C@H](O)C(F)(F)F)(c2cccc(OC(F)(F)F)c2)c2cccc(OC(F)(F)F)c2)no1 [Example 43, (S)-1,1,1-trifluoro-3-(3-(5-methylisoxazol-3-yl)-2,2-bis(3-(trifluoromethoxy)phenyl)propylamino)propan-2-ol]
7.72	O[C@H](CNCC(Cc1ccccn1)(c1cccc(OC(F)(F)F)c1)c1cccc(OC(F)(F)F)c1)C(F)(F)F [Example 44, (R)-1,1,1-trifluoro-3-(3-(pyridin-2-yl)-2,2-bis(3-(trifluoromethoxy)phenyl)propylamino)propan-2-ol]
5.55	O[C@@H](CN(C[C@H](O)C(F)(F)F)CC(Cc1ccccc1)(c1cccc(OC(F)(F)F)c1)c1cccc(OC(F)(F)F)c1)C(F)(F)F [Example 45, (2S,2′S)-3,3′-(3-phenyl-2,2-bis(3-(trifluoromethoxy)phenyl)propylazanediyl)bis(1,1,1-trifluoropropan-2-ol)]
7.85	O[C@H](CNCC(Cc1ccccc1)(c1cccc(OC(F)(F)F)c1)c1cccc(OC(F)(F)F)c1)C(F)(F)F [Example 47, (R)-1,1,1-trifluoro-3-(3-phenyl-2,2-bis(3-(trifluoromethoxy)phenyl)propylamino)propan-2-ol]
8.05	Cc1ccc(CC(CNC[C@@H](O)C(F)(F)F)(c2cccc(OC(F)(F)F)c2)c2cccc(OC(F)(F)F)c2)cc1 [Example 50, (R)-1,1,1-trifluoro-3-(3-p-tolyl-2,2-bis(3-(trifluoromethoxy)phenyl)propylamino)propan-2-ol]
7.60	FC(F)(F)CCNCC(Cc1ccccc1)(c1cccc(OC(F)(F)F)c1)c1cccc(OC(F)(F)F)c1 [Example 53, 3,3,3-trifluoro-N-(3-phenyl-2,2-bis(3-(trifluoromethoxy)phenyl)propyl)propan-1-amine]
6.74	Oc1c(F)cccc1CNCC(Cc1ccccc1)(c1cccc(OC(F)(F)F)c1)c1cccc(OC(F)(F)F)c1 [Example 94, 2-fluoro-6-((3-phenyl-2,2-bis(3-(trifluoromethoxy)phenyl)propylamino)methyl)phenol]
6.61	FC(F)(F)Oc1cccc(C(CNc2ncc(N3CCOCC3)cn2)(Cc2ccccc2)c2cccc(OC(F)(F)F)c2)c1 [Example 112, 5-morpholino-N-(3-phenyl-2,2-bis(3-(trifluoromethoxy)phenyl)propyl)pyrimidin-2-amine]
6.89	O=S(=O)(CC(F)(F)F)NCC(Cc1ccccc1)(c1cccc(OC(F)(F)F)c1)c1cccc(OC(F)(F)F)c1 [Example 122, 2,2,2-trifluoro-N-(3-phenyl-2,2-bis(3-(trifluoromethoxy)phenyl)-propyl)ethanesulfonamide]
5.96	isopropyl 3-phenyl-2,2-bis(3- (trifluoromethoxy)phenyl)- propylcarbamate [Example 133]
